We go through two compounds from patent US20230065158A1, “OXABICYCLOHEPTANES FOR TREATMENT OF SMALL CELL LUNG CANCER” (Lixte Biotechnology, Inc., priority 2021, published 2023).

pIC50: −log10 of the molar value. Read-outs that look alike come from different tables or passages of the source.

The test system of data set [1] is H524 cells. The experiment in a line: Cell Counting Kit-8 cytotoxicity and drug combination, H524. As for the experimental part:
(§1) A Mann-Whitney U test was used for comparison between the normal and SCLC samples. FIG. 1B: IHC for PP2A was conducted on TMA tissue sections and images were captured at 4× or 20× using a 3D-Histech PANNORAMIC SCAN whole slide scanner (3D-Histech, Budapest, Hungary). […] TMAs were scored in normal (n=24) and tumor (n=79) cores on a scale from 0 (no staining/no protein expression) to 3+(strong staining/high protein expression). FIG. 1C: Summary bar graph of the average PP2A subunit staining. IHC staining intensity of normal and tumor cores. […] FIG. 1D: In order to compare the expression of PP2A subunits A and C, cell lysates from seven SCLC cell lines and HBEC 3KT (non-malignant cell line) were subjected to western blotting. FIG. 1E: PP2A activity was determined using a serine/threonine phosphatase activity assay (Millipore) after 24 h exposure to cantharidin (10 μM) and LB-100 (5 μM). […] The Cell Counting Kit-8 assay detected cell H524 and H69 cell viability. […] FIGS. 1I-1K: Graphs depict the mean+SEM of percent viability for cells (n=3). Colony formation assays were used to count the ability of H524 (FIGS. 11 and 1J) and H69 (FIGS. 1K and 1L) cells to form colonies. […] Representative images of colonies at 4× are shown under the graph (n=2).*p<0.05; **, p<0.01; *** p<0.001; ****, p<0.0001. Experiments were repeated in triplicate and representative data are shown.

The test system of data set [2] is H524 and H69 cells. The experiment in a line: Colony formation assay. In kind it is cell-based. The settings on record: both cell lines; H524/H69: LB-100 2.5/20 μM, carboplatin 4/20 μM, etoposide 3/30 μM. The method, then:
as §1

Data set [3] relates to H524 cells. Briefly: Transendothelial extravasation assay through HUVEC monolayer, H524. The format is cell-based. The settings on record: after 20 h of drug treatment. The method, then: (§2) FIGS. 3A-3H depict SCLC cell invasion through HUVEC monolayer. FIGS. 3A-3D: Graphical representation of H524/H69 cell ability to disrupt a confluent HUVEC monolayer using an electrical substrate-impedance sensing system. Arrows indicate time point when cells were added. Inserts show mean values and SD for each group after 20 h of drug treatment. After treatment, cell viability was counted using an Auto T4 Cell Counter (Nexcelom Cellometer). […] Whole cell Pt accumulation. Graphical representation of LB-100 effect on platinum uptake by SCLC cells. Cells were pretreated with LB-100 (H524—5 μM; H69—20 μM) overnight, then treated with carboplatin for one or four hours (H524—10 μM; H69—30 μM). Whole cell pellet was used for platinum (Pt) measurement. Values are normalized to total protein concentration. FIGS. 3E and 3F: Panels show mean values and SD of Pt accumulation for each group. […] Effect of LB-100 on PP2A expression and apoptosis regulatory proteins in H524 and H69 cells. […]
(§3) To discern the effect of LB100 on cell invasion, we tested the ability of SCLC cells to invade though a layer of endothelial cells (ECs). Toward this end, we measured the trans-endothelial monolayer resistance using an electrical substrate-impedance sensing system (Applied Biophysics, Troy, N.Y., USA), as previously described (24). […]

The subject of data set [4] is H69 cells. Briefly: Transendothelial extravasation assay through HUVEC monolayer, H69. In kind it is cell-based. The settings on record: after 20 h of drug treatment. The method, then: as §2, §3
The subject of data set [5] is H69 cells. The experiment in a line: Seahorse XF Real-Time ATP rate assay, H69. The settings on record: LB-100 10 μM, carboplatin 10 μM. In kind it is cell-based.
Data set [6] has as its system H69 cells mouse xenograft. Briefly: Subcutaneous H69 cells mouse xenograft. In kind it is in vivo, Athymic nude mice. The settings on record: for tumor weight compared to vehicle-treated group: end of experiment. As for the experimental part:
FIGS. 8A-8E depicts results of LB-100 activity alone and with carboplatin against H69 cells mouse xenograft. Tumor size (FIG. 8A) and body weights (FIG. 8B) were measured. Inhibition of tumor growth after LB-100 (*p<0.05), carboplatin (***p<0.001) and their combination (***p<0.001) were delivered via i.p. injections. P values show significant differences compared with vehicle group. FIG. 8C: Tumor images from vehicle and drug-treated groups. FIG. 8D: Tumor mass was measured at the end of experiment. […] FIG. 8E: Columns show total platinum (Pt) concentration in mouse tumors with carboplatin and LB-100/carboplatin treatments (n=3 as technical replicates) Pt mass was normalized to tumor total mass. Statistical analysis was performed using an ANOVA with Tukey post hoc-test (*p<0.05), carboplatin (**p<0.01).
Animal studies were performed according to an IACUC protocol approved by City of Hope National Medical Center Animal Care and Use Committee. Athymic nude mice (5-6 weeks of age) were purchased from NCI (Frederick, Md.). Mice were injected subcutaneously on their right flank with H69 cells suspended (2×106) in 100 μl of PBS and 100 μl of matrigel (BD Biosciences, San Jose, Calif.). Tumor growth was measured in two dimensions with caliper and when surface tumor was visible (45-50 mm2) mice were randomized in four groups as follow: vehicle (PBS, i.p. 3 times a week), LB100 (0.25 mg/kg, i.p. 3 times a week), carboplatin (50 mg/kg, i.p. 2 times a week) and drug combination (LB100/carboplatin i.p.) for 30 days. At the end of the study, the mice were euthanized by CO2 asphyxiation followed by cervical dislocation. Tumor tissues were excised, weighed, and subsequently fixed in 10% buffered formalin and embedded in paraffin for histological analysis.

For data set [7], the system named is H526 cells. Briefly: Cell Counting Kit-8 cytotoxicity, H526. On the technique in general: Tetrazolium assays rely on reduction of a dye to a coloured formazan, in cell work by metabolically active cells.
Text: (§4) To determine specific cytotoxicity, we used Cell Counting Kit-8 (Dojindo Molecular Technologies, Rockville, Md.) as previously described (50).
In data set [8] the test system is H446 cells. Briefly: Cell Counting Kit-8 cytotoxicity, H446.
Text: as §4
Data set [9] deals with H146 cells. The experiment in a line: Cell Counting Kit-8 cytotoxicity, H146.
Text: as §4

What is called pIC50 is −log10 of the IC50, conventionally taken in molar units. Consider `C[NH+]1CCN(C(=O)C2C(C(=O)O)[C@H]3CC[C@@H]2O3)CC1` (stereo in doubt) [LB-100, 3-[(4-Methylpiperazin-1-yl)carbonyl]-7-oxabicyclo[2.2.1]heptane-2-carboxylic acid], for which the pIC50 in [1] (Homo sapiens, NCI-H524, 72 h, read-out: Cytotoxicity IC50, H524, 72 hours) was above 5.10; in [1] (human, 72 h), 5.28; in [7] (Homo sapiens, NCI-H526, 72 h, read-out: Cytotoxicity IC50, H526), above 5.10; in data set [8] (Homo sapiens, NCI-H446, 72 h, read-out: Cytotoxicity IC50, H446), above 5.10; in [9] (Homo sapiens, NCI-H146, 72 h, read-out: Cytotoxicity IC50, H146), around 4.70. The colony formation entry in [2] is given as “significantly reduced colony formation”. For the same compound, the “% change of HUVEC barrier disruption (transmigration)” value is listed as 16.9+2% in data set [3] and 12.3 ± 0.92% in data set [4]. The “drop of total ATP production rate” value in data set [5] is recorded as 54%. Besides, the “tumor weight compared to vehicle-treated group” value in [6] was “significant reduction in tumor weight”. Besides, in [6] (i.p., 30 days), the tumor size result is reported as “statistically significant reduction in tumor size”.
Consider `N.N.O=C([O-])C1(C(=O)[O-])CCC1.[Pt+2]` [Carboplatin, reference compound], for which the pIC50 in data set [1] (read-out: Cytotoxicity IC50, H524, 72 hours) is 5.09; in data set [7] (read-out: Cytotoxicity IC50, H526, 72 hours), 4.48; in data set [8] (read-out: Cytotoxicity IC50, H446, 72 hours) it was 4.58; in data set [9] (read-out: Cytotoxicity IC50, H146, 72 hours) it was 5.08. Besides, in [2], the colony formation result was “significantly reduced colony formation”. Moreover, the “% change of HUVEC barrier disruption (transmigration)” value in [3] is 18.2 ± 0.4%; in [4] it was 14.9 ± 1.24%. For the same compound, the “drop of total ATP production rate” value in [5] is given as 12%. Also, the “tumor weight compared to vehicle-treated group” value in data set [6] is “significant reduction in tumor weight”.
